Legend:
[1] = cited from earlier work
[2] = Stability of reboxetine methanesulfonate in the presence of traditional poly(alkylene oxide) polymers; type: physicochemical
Description: Substantial levels of various impurities are formed, which increase in concentration over time. The predominant impurity that is formed is the n-formyl species of reboxetine methanesulfonate, known as n-formyl reboxetine.
Poly(alkylene oxide) polymer consists of long chains of the polymer. Irradiation and oxidation cause these chains to be cleaved, leaving inorganic and organic formates at the ends of the chains. As more cleaving occurs, there are higher levels of formates present.

Row | stability in the presence of traditional poly(alkylene oxide) polymer subjected to irradiation processes or oxidation [2] | stability in the presence of traditional polyethylene oxides [2] | Compound | Pka [1]
1 | – | – | C/C(=C/C(=O)O)C(=O)O [citraconic acid] | 2.48
2 | – | – | F [hydrofluoric acid] | 3.14
3 | substantially less stable | unstable | CCOc1ccccc1OC(c1ccccc1)C1CNCCO1.CS(=O)(=O)O (centres unmarked) [reboxetine methanesulfonate] | –
4 | – | – | O=S(O)(O)=S [thiosurfuric acid] | 2.00
